Data published in PMC8636514, “Therapeutic potential of TRPM8 antagonists in prostate cancer” (Scientific Reports, 2021).

Tests used:
Format in all cases: cell-based, human
C4-2B cells = assay: DNA synthesis (BrdU incorporation) in C4-2B cells
Protocol: Cells on coverslips were pulsed in vivo with BrdU (Sigma-Aldrich; at 100 μM, final concentration) and left unchallenged or challenged with 10 nM R1881 for 18 h, in the absence or presence of the indicated compounds. Cells were fixed, permeabilized, washed and the BrdU incorporation was analysed as reported. Nuclei were stained with Hoechst and cells on coverslips were scored by IF microscopy, using a DMLB Leica (Leica) fluorescent microscope, equipped with HCX PL Apo 63 × oil objective. Different fields from each coverslip were analyzed and BrdU incorporation was calculated by the formula: percentage of BrdU-positive cells = (No. of BrdU-positive cells/No. of total cells) × 100. Data in the graphs derive from at least 1000 scored cells for each coverslip. Representative images were captured using DC480 camera (Leica) and acquired using Leica Suite software. They are representative of three different experiments.

LNCaP cells [1] = assay: Fluorescent Ca2+ imaging (Fluo 4-AM) in LNCaP cells; conditions: for androgen-induced increase of intracellular Ca2+ levels: 10 nM R1881, 240 s, compound 1 μM
Protocol: LNCaP cells in 6 multi-wells were made quiescent and incubated for 60 min at 37 °C with 1 µM 4-Fluo AM (Abcam, ab241082). Cells were washed twice with Hank’s Balanced salt solution (HBSS) to remove any dye non-specifically associated with the cell surface. They were incubated with medium for 30 min to allow complete de-esterification of intracellular AM esters, and then left untreated or treated for 240 s with 10 nM R1881, in the absence or presence of the indicated compounds. Different fields were analyzed using DMIRB Leica (Leica) microscope equipped with C-Plan × 40 or HCX PL Fluotar × 63 objectives (Leica). IF microscopy images were generated using a DFC 450C camera (Leica).

LNCaP cells [2] = assay: Invasion assay in Matrigel, LNCaP cells; conditions: for androgen-induced invasion: 10 nM R1881, compound 1 μM; for invasion in the absence of hormone: compound 1 μM alone
Protocol: In wound scratch analysis, 1.8 × 10^5 cells were seeded in a 24-well plate and made quiescent. Cells were then wounded using 10 µl sterile pipette tips and washed with PBS. They were left un-stimulated or stimulated for the indicated times, in the absence or presence of the selected compounds. To avoid cell proliferation, cytosine arabinoside (Sigma-Aldrich) at 50 μM (final concentration) was included in the cell medium. Different fields were analysed by contrast-phase microscopy, as below described in this section. Migration and invasion assays were done as reported. In migration assay, we used 3 × 10^4 cells in collagen pre-coated Boyden’s chambers with 8 μm polycarbonate membrane (Falcon). The indicated stimuli were added to the upper and the lower chambers. Cytosine arabinoside (at 50 μM) was included in the cell medium. After 7 h, non-migrating cells from the membrane upper surface were removed using a sterile cotton swab. In invasion assay, we used 5 × 10^4 cells in Boyden’s chambers with 8 μm polycarbonate membrane (Falcon) pre-coated with growth factor reduced- and phenol red-free Matrigel (Corning). The indicated stimuli were added to the upper and the lower chambers. Cytosine arabinoside (at 50 μM) was included in the cell medium. After 24 h, non-invading cells from the membrane upper surface were removed using a sterile cotton swab. In migration and invasion assays, the membranes were fixed for 20 min in 4% paraformaldehyde, stained with Hoechst (Sigma-Aldrich), removed with forceps from the companion plate and mounted. Migrating and invading cells were scored by fluorescence microscopy, as below described in this section.
In wound scratch assay, different fields were analysed using DMIRB inverted microscope (Leica) equipped with N-Plan 10 × objective (Leica), as reported. LNCaP organoids were analysed using the same microscope equipped with C-Plan 40 × or HCX PL Fluotar 63 × objectives (Leica). Images were captured using a DFC 450C camera (Leica) and acquired using the Application Suite Software (Leica). They are representative of three different experiments. The relative organoid size was calculated using the same software and expressed as a fold increase over the basal organoid size (measured at 3th day). The wound gap was calculated using Image J Software and expressed as % of the decrease in the wound area. Migrating or invading cells from at least 30 fields/each membrane were scored, using a DMLB (Leica) fluorescent microscope, equipped with HCPL Fluotar 20 × objective.

Cdk4 = assay: Western blot of Cdk4 in LNCaP cells; conditions: 15 h
From the text: (§1) All performed as reported. The mouse monoclonal anti-AR (441; Santa Cruz) antibody was used in Co-Ip or WB approaches. TRPM8 was detected using the rabbit polyclonal anti-TRPM8 (NBP1-97311; Novus Biological). […] The rabbit polyclonal anti-ERK (C-14; Santa Cruz), antibody was used to detect total ERK. FAK and P-Tyr397 FAK were detected using the mouse monoclonal anti-FAK (Clone 77/610077 BD Transduction Laboratories) or anti P-Tyr397 FAK (Clone 14/611722; BD Transduction Laboratories) antibodies, respectively. P-Tyr118 paxillin and total paxillin were detected using the rabbit polyclonal anti-P-Y118 (#2541, Cell Signaling) or the mouse monoclonal anti-paxillin (clone 349; BD Biosciences) antibodies, respectively. […] P-Tyr 416 Src and Src were detected using the rabbit monoclonal anti P-Tyr 416 Src (#6943; Cell Signaling) or the mouse monoclonal anti Src (Calbiochem) antibodies, respectively. ERα and ERβ were detected using the rabbit polyclonal anti-ERα (543; Santa Cruz) or anti-ERβ (Upstate Biotechnology, U.S.A.) antibodies. Cyclin D1, p27 and Cdk4 were stained using the mouse monoclonal anti-cyclin D1 (clone AM29; from Zymed Laboratories Inc.), the rabbit polyclonal anti-p27 (C-19; Santa Cruz) or anti Cdk-4 (c-22; Santa Cruz) antibodies, respectively. The mouse monoclonal anti-tubulin (Sigma-Aldrich) antibody was used to detect tubulin. The ECL system (GE Healthcare) was employed to reveal immune-reactive proteins. Densitometric analysis of WB was performed by using Image J Software (https://imagej.nih.gov/ij).

AR = assay: Western blot of AR in LNCaP lysate proteins; conditions: for AR in lysates, Average (n=3): Fig 6d upper panel
From the text: as §1

cyclin D1 = assay: Western blot of cyclin D1 in LNCaP cells; conditions: for Cyclin D1, fold increase over the basal level: 15 h; for androgen-induced up-regulation of cyclin D1: R1881, compound 1 μM
From the text: as §1

[3] = cycling cells, 18 h, 100 nM and 1 μM
[4] = 1 nM R1881 + compound 1 μM, Fig 2e-f
[5] = 10 nM R1881 + compound 1 μM, Fig 2d

Row | Compound | BrdU incorporation (C4-2B cells; [3]) | androgen-induced increase of intracellular Ca2+ levels (LNCaP cells [1]) | androgen-induced invasion (LNCaP cells [2]) | invasion in the absence of hormone (LNCaP cells [2]) | Cdk4, fold increase over the basal level (Cdk4; [4]) | AR in lysates, Average (n=3) (AR; 10 nM R1881 + compound 1 μM) | AR in lysates, Average (n=3) (AR; compound 1 μM alone) | Cyclin D1, fold increase over the basal level (cyclin D1; [4]) | androgen-induced up-regulation of cyclin D1 (cyclin D1) | also measured
1 | c1ccc(COc2ccc3[nH]cc(CCNCc4ccc(Oc5ccccc5)cc4)c3c2)cc1 [Compound 4] | inhibited | reduced the androgen effect | reversed | negligible effect | 1 fold | 0,9 | 0,9 | 0,9 fold | significantly impair | –
2 | COC(=O)[C@H](Cc1c[nH]c2ccccc12)N(Cc1ccccc1)Cc1ccccc1 [Compound 6] | inhibited | reduced the androgen effect | reversed | negligible effect | 1,1 fold | 1,1 | 0,9 | 0,9 fold | significantly impair | Cdk4, fold increase over the basal level (Cdk4; [5]): 1,1 fold; Cyclin D1, fold increase over the basal level (cyclin D1; [5]): 1,2 fold
3 | C[C@]1(O)CC[C@H]2[C@@H]3CCC4=CC(=O)CCC4=C3C=C[C@@]21C [Compound R1881, reference compound] | – | – | – | – | – | – | – | – | – | BrdU incorporation (C4-2B cells; 10 nM R1881 (not shown)): did not observe any effect; intracellular Ca2+ levels (LNCaP cells [1]; 10 nM R1881 alone, within 240 s): increased; increase in number of invading cells in Matrigel (LNCaP cells [2]; 10 nM R1881 alone): 1,6 folds; Cdk4, fold increase over the basal level (Cdk4; 1 nM R1881 alone, Fig 2e): 1 fold; Cdk4, fold increase over the basal level (Cdk4; 1 nM R1881 alone, Fig 2f): 1,1 fold; Cdk4, fold increase over the basal level (Cdk4; 10 nM R1881 alone, Fig 2d): 1 fold; AR, Average (n=3) (AR; Fig 6e, first group of list (section not labelled, probably lysates), R1881 alone): 1; AR in lysates, Average (n=3) (AR; 10 nM R1881 alone, 10 min): 1; Cyclin D1, fold increase over the basal level (cyclin D1; 1 nM R1881 alone, Fig 2e): 1,5 fold; Cyclin D1, fold increase over the basal level (cyclin D1; 1 nM R1881 alone, Fig 2f): 1,7 fold; Cyclin D1, fold increase over the basal level (cyclin D1; 10 nM R1881 alone, Fig 2d): 2,7 fold
